From US10688047B2, “Physically and chemically stable oral suspensions of givinostat” (ITALFARMACO SPA, priority 2015, dated 2020)
Converted amounts (≈) assume the structure as drawn. Like-named read-outs stand apart in the source and are kept apart here. Blank lines part the entries; values can stand above or below the compound they belong to.

Assays:
[1] = Solubility of Givinostat (ITF2357) in water, buffers and aqueous vehicles; type: physicochemical
Procedure: Solubility of Givinostat was tested in aqueous vehicles at pH 6, containing Phosphate buffer. Tween 20 as wetting agent and either Sorbitol or Sucrose (40% w/v). To this aim, an amount of Givinostat sufficient to ensure saturation was mixed with 15 mL of each vehicle in separate vials. These vials were shaken at 25° C.±PC for at least 24 hours in order to obtain equilibrium. The saturated solution was then separated from the excess solid by filtration and Givinostat (ITF2357) was quantitated in the filtrate by UV-Vis spectrophotometric technique.
In table 4 solubility value determined on ITF 2357 saturated solution in different buffer at pH 4.5 are reported.
Solubility of ITF2357 determined in suspension vehicles having compositions as described in Example 1, thus containing Sorbitol at 40% w/v and Tartrate buffer, at different pH (pH range from 4 to 7 adjusted with Tartaric Acid or Sodium Hydroxide) are shown in Table 5.

[2] = Chemical stability of ITF2357 solutions (degradation on storage); type: physicochemical
Procedure: For example, solubility of ITF2357 in phosphate buffers at pH 2, 4.5, 6 and 8 is about 1.13-2.88-0.77 and 0.05 mg/mL respectively. Thus, it is technically possible to prepare aqueous solutions of ITF2357, having concentrations, e.g., between 0.02 and 0.3% w/v, intended for oral administration. However, because of the poor Givinostat solubility, large volume of an oral solution formulation would need to be administered to allow administration of effective drug doses and this pose patient compliance issues. […] In a preferred embodiment, the suspension according to the invention further comprising at least a buffering agent.

[3] = system: IL-1β; details: LPS-stimulated cultured human PBMCs; read-out: concentration reducing by 50% the release of intracellular interleukin IL-1β; cited from earlier work
[4] = system: interferon-γ (IFNγ); details: LPS-stimulated cultured human PBMCs; read-out: concentration reducing by 50% the production of IFNγ; cited from earlier work
[5] = system: serum TNFα; details: mice, oral administration of 1.0 to 10 mg/kg; cited from earlier work
[6] = system: serum IFNγ; details: mice, oral administration of 1.0 to 10 mg/kg; cited from earlier work
[7] = Solubility of Givinostat (ITF2357) in water, buffers and aqueous vehicles; type: physicochemical; details: phosphate buffer
[8] = at 20° C.; cited from earlier work

solubility ([1]; acetate buffer, pH 4.5, aqueous buffer, thermodynamic from solid, Acetate buffer pH 4.5, read-out: ITF2357 solubility): 5100 µg/mL (≈ 12100 µM)
solubility ([1]; aqueous vehicle, 25 °C, pH 6, aqueous with cosolvent or surfactant or cyclodextrin, thermodynamic from solid, Phosphate buffer pH 6, Tween 20, Sorbitol 10% (w/v), 25° C., read-out: ITF2357 Solubility): 2340 µg/mL (≈ 5550 µM)
solubility ([1]; aqueous vehicle, 25 °C, pH 6, aqueous with cosolvent or surfactant or cyclodextrin, thermodynamic from solid, Phosphate buffer pH 6, Tween 20, Sorbitol 20% (w/v), 25° C., read-out: ITF2357 Solubility): 2110 µg/mL (≈ 5000 µM)
solubility ([1]; aqueous vehicle, 25 °C, pH 6, aqueous with cosolvent or surfactant or cyclodextrin, thermodynamic from solid, Phosphate buffer pH 6, Tween 20, Sorbitol 30% (w/v), 25° C., read-out: ITF2357 Solubility): 2020 µg/mL (≈ 4790 µM)
solubility ([1]; aqueous vehicle, 25 °C, pH 6, aqueous with cosolvent or surfactant or cyclodextrin, thermodynamic from solid, Phosphate buffer pH 6, Tween 20, Sorbitol 40% (w/v), 25° C., read-out: ITF2357 Solubility): 1930 µg/mL (≈ 4580 µM)
solubility ([1]; aqueous vehicle, 25 °C, pH 6, aqueous with cosolvent or surfactant or cyclodextrin, thermodynamic from solid, Phosphate buffer pH 6, Tween 20, Sucrose 40% (w/v), 25° C., read-out: ITF2357 Solubility): 3880 µg/mL (≈ 9190 µM)
solubility ([1]; phosphate buffer pH 4.5): 2880 µg/mL (≈ 6830 µM)
solubility ([1]; phosphate buffer, pH 4.5, aqueous buffer, thermodynamic from solid, phosphate buffer pH 4.5, read-out: solubility): ~2880 µg/mL (≈ 6830 µM)
solubility ([1]; phosphate buffer, pH 8, aqueous buffer, phosphate buffer pH 8, read-out: solubility): ~50 µg/mL (≈ 119 µM)
solubility ([1]; purified water, water, purified water, read-out: solubility): ~2500 µg/mL (≈ 5930 µM)
solubility ([1]; suspension vehicle, pH 4, aqueous with cosolvent or surfactant or cyclodextrin, thermodynamic from solid, Tartrate buffer pH = 4.0, Tween 20, Sorbitol 40% w/v, read-out: ITF2357 solubility): 210 µg/mL (≈ 498 µM)
solubility ([1]; suspension vehicle, pH 5, aqueous with cosolvent or surfactant or cyclodextrin, thermodynamic from solid, Tartrate buffer pH = 5.0, Tween 20, Sorbitol 40% w/v, read-out: ITF2357 solubility): 150 µg/mL (≈ 356 µM)
solubility ([1]; suspension vehicle, pH 5.5, aqueous with cosolvent or surfactant or cyclodextrin, thermodynamic from solid, Tartrate buffer pH = 5.5, Tween 20, Sorbitol 40% w/v, read-out: ITF2357 solubility): 160 µg/mL (≈ 380 µM)
solubility ([1]; suspension vehicle, pH 6, aqueous with cosolvent or surfactant or cyclodextrin, thermodynamic from solid, Tartrate buffer pH = 6.0, Tween 20, Sorbitol 40% w/v, read-out: ITF2357 solubility): 150 µg/mL (≈ 356 µM)
solubility ([1]; suspension vehicle, pH 6.5, aqueous with cosolvent or surfactant or cyclodextrin, thermodynamic from solid, Tartrate buffer pH = 6.5, Tween 20, Sorbitol 40% w/v, read-out: ITF2357 solubility): 160 µg/mL (≈ 380 µM)
solubility ([1]; suspension vehicle, pH 7, aqueous with cosolvent or surfactant or cyclodextrin, thermodynamic from solid, Tartrate buffer pH = 7.0, Tween 20, Sorbitol 40% w/v, read-out: ITF2357 solubility): 150 µg/mL (≈ 356 µM)
solubility ([1]; tartrate buffer, pH 4.5, aqueous buffer, thermodynamic from solid, Tartrate buffer pH 4.5, read-out: ITF2357 solubility): 230 µg/mL (≈ 546 µM)
degradation of solution ([2]; phosphate buffer pH 2, 6 days at 40° C.): about 6.3%
degradation of solution ([2]; phosphate buffer pH 4.5, 6 days at 40° C.): ~0.8%
degradation of solution ([2]; phosphate buffer pH 6, 6 days at 40° C.): ~0.5%
degradation of solution ([2]; phosphate buffer pH 8, 6 days at 40° C.): ~2.1%
solubility ([7]; pH 2, aqueous buffer, phosphate buffer pH 2): ~1130 µg/mL (≈ 2680 µM)
solubility ([7]; pH 6, aqueous buffer, phosphate buffer pH 6): ~770 µg/mL (≈ 1830 µM)
Compound: CCN(CC)Cc1ccc2cc(COC(=O)Nc3ccc(C(=O)NO)cc3)ccc2c1 [ITF2357, Givinostat]
IC50 [3]: 12 nM
IC50 [4]: 25 nM
reduction of LPS-induced serum TNFα [5]: more than 50%
reduction of LPS-induced serum IFNγ [6]: more than 50%

Compound: OC[C@H]1O[C@@](CO)(O[C@H]2O[C@H](CO)[C@@H](O)[C@H](O)[C@H]2O)[C@@H](O)[C@@H]1O [Sucrose]
parts of water in which 1 part dissolves [8]: 0.3 parts of water
